# Data published in patent US9216182B2, “Carbamate/urea derivatives containing piperidin and piperazin rings as H3 receptor inhibitors” (Novartis AG, priority 2011, dated 2015).
smiles,measurement,value
"CC(C)N1CCN(C(=O)OC2CCN(c3ccc(C(N)=O)cn3)CC2)CC1 [Example 1.1, 1-(5-carbamoylpyridin-2-yl)piperidin-4-yl 4-isopropylpiperazine-1-carboxylate]",melting point,200.1 to 203.6 °C
